Results published in a melting point compilation (Tetko et al.).

In the case of `CCOC(=O)c1c[nH]c2cc(F)c(F)c(F)c2c1=O`, the melting point is reported as 339 to 341 °C.
For `N#Cc1cc(N)ccc1Oc1ccc(C(F)(F)F)cc1`, the melting point was 75 to 77 °C.
For `O=C(NNC(=O)C(Cl)Cl)c1ccccc1`, the melting point was 184 to 186 °C.
`Cc1c(F)ccc2sc(N)nc12` gave a melting point of 174 to 176 °C.
With `Nc1cccnc1C(=O)O` the melting point was 218 to 220 °C.
Work on `O=C(O)c1nc(-n2cnc3ccccc32)ccc1Cl` yielded a melting point of 192 to 194 °C.
In the case of `COc1ccc(CCC2CCCCN2)cc1OC` (stereo not given), the melting point is reported as 39 to 41 °C.
Compound `O=S(=O)(Cl)c1cccc2ncccc12` has a melting point of 121 to 123 °C.
In the case of `Cc1cc(C)c2c(C)nn(-c3ccc(N)cc3)c2n1`, the melting point is reported as 104 to 106 °C.
For `NC(=O)N1CCCC(C(=O)O)C1` (stereo not given), the melting point was 181 to 185 °C.
In the case of `NCC1(O)CCC1`, the melting point is reported as 64 to 66 °C.
Compound `CN1C(=O)CNc2ccccc21` has a melting point of 88 to 90 °C.
`O=S(=O)(c1ccc(OCCBr)cc1)N1CCOCC1` gave a melting point of 137 to 138 °C.
`Ic1ccc(OCCc2ccccc2)cc1` showed a melting point of 64 to 66 °C.
`C#CCNS(=O)(=O)c1ccc(C(=O)O)cc1` gave a melting point of 149 to 151 °C.
For `CC(C)(C)OC(=O)NC1CCC(O)CC1` (stereo not given), the melting point was 169 to 171 °C.
`NNC(=O)CN1CCCc2ccccc21` showed a melting point of 107 to 109 °C.
In the case of `CC(C)c1nc(C#N)c(NN)o1`, the melting point is reported as 103 to 105 °C.
Compound `N#CC(N)c1ccc(OCc2ccccc2)cc1` (stereo not given) has a melting point of 111 to 113 °C.
In the case of `Clc1nc(C=Cc2ccc(Br)cc2)nc2sc3c(c12)CCCC3`, the melting point is reported as 168 to 170 °C.
With `CCn1c(CCC(=O)O)nc2cc(S(=O)(=O)N(C)C)ccc21` the melting point was 186 to 188 °C.
`Cc1ccc(S(=O)(=O)NC(C(=O)O)C(C)C)cc1` (stereo not given) gave a melting point of 167 to 169 °C.
With `O=C(O)C1CCCN1C(=O)c1ccc2ccccc2c1O` (stereo not given) the melting point was 197 to 199 °C.
Work on `O=C(O)c1ccc(-c2cccc(Cl)c2)s1` yielded a melting point of 222 to 224 °C.
`Cc1ccc(NS(=O)(=O)c2ccc(NN)c([N+](=O)[O-])c2)c(C)c1` showed a melting point of 215 to 217 °C.
Compound `N#Cc1ccc(S(=O)(=O)N2CCOCC2)cc1` has a melting point of 158 to 160 °C.
`O=C(Cc1ccc(Cl)cc1)N1CCNCC1` gave a melting point of 105 to 107 °C.
`CCC(=CC(=O)O)c1ccc(OC)cc1` showed a melting point of 130 to 132 °C.
`Fc1ccc(-c2csc3ncnc(S)c23)cc1` gave a melting point of 244 to 246 °C.
With `Cc1csc2nc(CO)cc(=O)n12` the melting point was 154 to 156 °C.
For `O=C(O)C1CCN(S(=O)(=O)c2ccccc2)CC1`, the melting point was 156 to 158 °C.
Compound `Cc1cc(N)c(C(N)=O)cc1F` has a melting point of 192 to 194 °C.
`CCOc1cc(Br)c(C=O)cc1OCC` gave a melting point of 71 to 72 °C.
With `N#Cc1ccc(OCc2ccc(C(=O)O)o2)cc1` the melting point was 203 to 205 °C.
`CC(C)n1nccc1C(=O)O` gave a melting point of 149 to 151 °C.
`CSc1cnn(-c2ccccc2)c1N` showed a melting point of 77 to 79 °C.
For `Nc1ccc2nc(N)ccc2c1`, the melting point was 213 to 215 °C.
For `Cc1c[nH]c(=O)n1-c1ccc(C#N)cc1`, the melting point was 230 to 232 °C.
`CCOc1ccc(NC(N)=S)cc1` gave a melting point of 164 to 166 °C.
In the case of `Nc1cccc(S(=O)(=O)Nc2cccc(Cl)c2)c1`, the melting point is reported as 107 to 109 °C.
With `O=S(=O)(Cl)C=Cc1ccc(F)cc1` the melting point was 110 to 112 °C.
In the case of `NS(=O)(=O)c1ccc(/C=C/C(=O)O)cc1`, the melting point is reported as 274 to 276 °C.
With `O=C(NC(Cc1ccccc1)C(=O)O)c1ccc(Cl)cc1` (stereo not given) the melting point was 195 to 197 °C.
Work on `CC(C)(C)OC(=O)NCC(C)(C)C(=O)O` yielded a melting point of 116 to 118 °C.
`CC(=O)Nc1sc(C)c(C)c1C(=O)O` showed a melting point of 217 to 219 °C.
`Cc1c(NC(=O)CSCC(=O)O)c(=O)n(-c2ccccc2)n1C` showed a melting point of 180 to 182 °C.
`C#CCOc1ccc(N)cc1` showed a melting point of 49 to 51 °C.
Work on `COc1cc(C=O)c(-c2ccccc2)cc1OC` yielded a melting point of 133 to 135 °C.
With `CC(=O)Nc1cccc(CN)c1` the melting point was 82 to 84 °C.
In the case of `Nc1nnc(Cc2cccc(F)c2)s1`, the melting point is reported as 193 to 195 °C.
For `O=C(c1ccccc1O)N1CCCCC1`, the melting point was 133 to 135 °C.
`COc1ccc(-c2nc3c(s2)C(=O)CCC3)cc1` gave a melting point of 112 to 114 °C.
Work on `O=C(NC1CCOCC1)c1ccc(Cl)nn1` yielded a melting point of 152 to 154 °C.
`O=C(O)Cn1cc([N+](=O)[O-])ccc1=O` gave a melting point of 225 to 227 °C.
With `Cc1cc(C(=O)CCl)c(C)n1-c1ccon1` the melting point was 87 to 89 °C.
In the case of `COc1ccsc1C(=O)O`, the melting point is reported as 179 to 181 °C.
For `CCOC(=O)c1c(N)sc2c1CCN(C(C)C)C2`, the melting point was 81 to 83 °C.
`COCCOc1ccc(C#N)cn1` gave a melting point of 39 to 41 °C.
With `NC(Cc1ccco1)C(=O)O` (stereo not given) the melting point was 179 to 181 °C.
`CC(C)(C)c1ccc(C(=O)C(=O)O)cc1` gave a melting point of 67 to 69 °C.
For `O=C(O)c1cc(S(=O)(=O)N2CCCC2)c[nH]1`, the melting point was 175 to 177 °C.
With `CN1CCC(Nc2cccc3ccccc23)CC1` the melting point was 83 to 85 °C.
Compound `CCN(CC)S(=O)(=O)c1ccc(O)c(N)c1` has a melting point of 74 to 76 °C.
`CNC1(CO)CCC(c2ccccc2)CC1` (stereo not given) showed a melting point of 127 to 129 °C.
`Cc1cc(-c2nc(C3CC3)no2)ccc1N` gave a melting point of 87 to 89 °C.
For `C#CCOc1ccccc1C#N`, the melting point was 77 to 79 °C.
In the case of `O=C(CCl)NCC1CCN(c2ccccc2)C1` (stereo not given), the melting point is reported as 61 to 63 °C.
Compound `NC(=O)c1cc(-c2ccccc2)sc1NC(=O)CCl` has a melting point of 208 to 210 °C.
With `N#Cc1ccccc1-c1ccc(CN2CCOCC2)cc1` the melting point was 71 to 73 °C.
Work on `CC(O)Cc1ccc(Br)c(F)c1` (stereo not given) yielded a melting point of 36 to 38 °C.
